This note sets out measurements from ChEMBL document CHEMBL3639170, “Carboxy isatin hydrazones and their esters as Shp2 inhibitors” (2014).

The target of the assay is T1, Tyrosine-protein phosphatase non-receptor type 11 (Homo sapiens, UniProt Q06124).
T1 sequence (Q06124 whole entry): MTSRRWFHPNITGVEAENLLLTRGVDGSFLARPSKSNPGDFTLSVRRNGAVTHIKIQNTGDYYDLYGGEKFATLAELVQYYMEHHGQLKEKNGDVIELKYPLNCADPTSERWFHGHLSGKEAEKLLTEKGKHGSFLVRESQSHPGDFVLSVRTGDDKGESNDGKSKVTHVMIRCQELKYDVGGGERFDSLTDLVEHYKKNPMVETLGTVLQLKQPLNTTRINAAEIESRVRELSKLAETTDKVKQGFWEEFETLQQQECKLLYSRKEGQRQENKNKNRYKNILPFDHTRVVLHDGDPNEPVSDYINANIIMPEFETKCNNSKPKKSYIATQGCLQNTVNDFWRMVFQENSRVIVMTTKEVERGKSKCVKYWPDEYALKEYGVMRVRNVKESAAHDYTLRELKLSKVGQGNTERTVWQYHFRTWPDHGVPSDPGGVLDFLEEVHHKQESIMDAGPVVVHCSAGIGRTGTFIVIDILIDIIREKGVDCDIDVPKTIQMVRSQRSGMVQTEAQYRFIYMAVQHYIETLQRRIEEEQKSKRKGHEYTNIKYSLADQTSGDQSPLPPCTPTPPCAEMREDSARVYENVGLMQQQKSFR
As to the kind of experiment: Inhibition Assay: In vitro Shp2 PTP activity inhibition assay for determination of IC50 was performed with a recombinant GST-Shp2 PTP domain protein using 6,8-difluoro-4-methylumbelliferyl phosphate (DiFMUP, Invitrogen) as the substrate similar to that described previously (Chen, et al., Discovery of a novel shp2 protein tyrosine phosphatase inhibitor. Mol Pharmacol 2006; 70:562-70).

The IC50 is the concentration needed to halve the response being measured. `O=C(O)C(O)CC(=O)N1CCc2cc(S(=O)(=O)N3CCN(c4cccc(Cl)c4)CC3)ccc21` (stereo unspecified): the IC50 is 8.2 µM.
